Where a name gives a salt, the structure may show the parent alone.
Each molecule was assayed against Dephosphorylated BTK (Homo sapiens, UniProt Q06187) (assay: Test of activity inhibition against dephosphorylated BTK (mobility shift assay)).
Chain of Dephosphorylated BTK (Q06187 whole entry): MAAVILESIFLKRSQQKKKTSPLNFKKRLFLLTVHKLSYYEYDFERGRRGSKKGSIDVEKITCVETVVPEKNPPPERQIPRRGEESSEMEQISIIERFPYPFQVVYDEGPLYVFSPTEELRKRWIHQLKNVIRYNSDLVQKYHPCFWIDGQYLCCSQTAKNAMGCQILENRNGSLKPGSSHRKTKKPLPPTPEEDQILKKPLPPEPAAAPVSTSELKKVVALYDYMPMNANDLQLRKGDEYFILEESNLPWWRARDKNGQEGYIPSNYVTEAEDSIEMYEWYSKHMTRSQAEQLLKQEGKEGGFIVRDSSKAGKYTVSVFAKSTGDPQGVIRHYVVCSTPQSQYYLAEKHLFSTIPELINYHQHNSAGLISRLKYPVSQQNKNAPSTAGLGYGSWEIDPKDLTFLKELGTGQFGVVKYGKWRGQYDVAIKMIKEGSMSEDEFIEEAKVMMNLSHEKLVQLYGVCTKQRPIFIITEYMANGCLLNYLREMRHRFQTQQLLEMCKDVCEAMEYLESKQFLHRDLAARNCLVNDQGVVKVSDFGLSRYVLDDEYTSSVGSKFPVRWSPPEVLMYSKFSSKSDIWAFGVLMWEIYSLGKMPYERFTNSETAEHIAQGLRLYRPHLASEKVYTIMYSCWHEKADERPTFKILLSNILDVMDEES
Procedure: Kinase activity was measured by a mobility shift assay (MSA) method using QuickScout Screening Assist (trademark) MSA (commercially available kit, manufactured by Carna Biosciences, Inc.). FITC-labeled SRCtide peptide supplied with the kit was used as a substrate of a kinase reaction.
IC50 value was calculated by regression analysis of the inhibition ratio and the test compound concentration (logarithm).
Dephosphorylated BTK was obtained by adding a A protein phosphatase (Code No. P0753S, manufactured by New England BioLabs Inc.) and MnCl2 to a biotinylated BTK protein BTN-BTK (manufactured by Carna Biosciences, Inc.) enzyme solution so as to adjust the concentrations to 10 U/μg and 2 mM, respectively, reacting the mixture at 4° C. overnight, removing the A protein phosphatase through anti-[sequence]-tag antibody agarose gel chromatography, and performing buffer exchange using 10DG Desalting Column.

Q: `CC(C1CC1)n1cc(Nc2nc(N)nc(-c3cccc(N4CCc5cc(C6CC6)cc(F)c5C4=O)c3CO)n2)cn1` (stereo not drawn) [Example 270, 2-[3-(4-Amino-6-{[1-(1-cyclopropylethyl)-1H-pyrazol-4-yl]amino}-1,3,5-triazin-2-yl)-2-(hydroxymethyl)phe-nyl]-6-cyclopropyl-8-fluoro-3,4-dihydroiso-quinolin-1(2H)-one] was tested. Which IC50 did it give?
A: 0.7 nM

Q: How did the IC50 turn out when `Nc1nc(Nc2cnn([C@@H]3CCOC3)c2)nc(-c2cccc(N3CCc4cc(C5CC5)cc(F)c4C3=O)c2CO)n1` [Example 236, (R)-2-[3-(4-Amino-6-{[1-(tetrahydrofuran-3-yl)-1H-pyrazol-4-yl]amino}-1,3,5-triazin-2-yl)-2-(hydroxymeth-yl)phenyl]-6-cyclopropyl-8-fluoro-3,4-dihydro-isoquinolin-1(2H)-one] was run?
A: 0.8 nM

Q: With `CC(=O)Nc1ccc(Nc2nc(N)nc(-c3cccc(NC(=O)c4ccc(C(C)(C)C)cc4)c3CO)n2)cc1` [Example 119, N-(3-{4-[(4-Acetamido-phenyl)amino]-6-amino-1,3,5-triazin-2-yl}-2-(hydroxymethyl)phe-nyl)-4-(tert-butyl)benz-amide] as the molecule, how does the IC50 read?
A: 0.8 nM

Q: How did the IC50 turn out when `CC(C)(C)c1ccc(C(=O)Nc2cccc(-c3nc(N)nc(Nc4ccc(S(N)(=O)=O)cc4)n3)c2CO)cc1` [Example 118, N-(3-{4-Amino-6-[(4-sulfa-moylphenyl)amino]-1,3,5-triazin-2-yl}-2-(hydroxymethyl)phe-nyl)-4-(tert-butyl)benz-amide] was run?
A: 0.8 nM

Q: With `CN(C)CCCOc1ccc(Nc2nc(N)nc(-c3cccc(NC(=O)c4cc5c(s4)CCCC5)c3CO)n2)cc1` [Example 135, N-{3-[4-Amino-6-({4-[3-(dimethylamino)prop-oxy]phenyl}amino)-1,3,5-triazin-2-yl]-2-(hy-droxymethyl)phenyl}-4,5,6,7-tetrahydro-benzo[b]thiophene-2-carboxamide] as the molecule, how does the IC50 read?
A: 1.3 nM

Q: Which IC50 does the source give for `CCOC(=O)c1cc(Nc2nc(N)nc(-c3cccc(N4CCc5cc(C6CC6)cc(F)c5C4=O)c3CO)n2)cn1C` [Example 219, Ethyl 4-({4-amino-6-[3-(6-cyclo-propyl-8-fluoro-1-oxo-3,4-dihydroisoquinolin-2(1H)-yl)-2-(hydroxy-methyl)phenyl]-1,3,5-triazin-2-yl}ami-no)-1-methyl-1H-pyrrole-2-carboxylate] here?
A: 0.8 nM

Q: For `CC(C)(C)c1ccc(C(=O)Nc2cccc(-c3nc(N)nc(Nc4ccc(O)c(F)c4)n3)c2CO)cc1` [Example 113, N-(3-{4-Amino-6-[(3-fluoro-4-hydroxyphenyl)amino]-1,3,5-triazin-2-yl}-2-(hydroxymeth-yl)phenyl)-4-(tert-butyl)benzamide], which IC50 is on record?
A: 2.6 nM

Q: With `Nc1nc(Nc2ccc(CN3CCOCC3)cc2)nc(-c2cccc(N3CCc4cc(C5CC5)cc(F)c4C3=O)c2CO)n1` [Example 45, 2-[3-(4-Amino-6-{[4-(morpho-linomethyl)phe-nyl]amino}-1,3,5-tri-azin-2-yl)-2-(hydroxymeth-yl)phenyl]-6-cyclopro-pyl-8-fluoro-3,4-di-hydroisoquinolin-1(2H)-one] as the molecule, how does the IC50 read?
A: 1.7 nM

Q: `Nc1nc(Nc2ccsc2)nc(-c2cccc(N3CCc4cc(C5CC5)cc(F)c4C3=O)c2CO)n1` [Example 228, 2-{3-[4-Amino-6-(thio-phen-3-ylamino)-1,3,5-triazin-2-yl]-2-(hy-droxymethyl)phenyl}-6-cyclopropyl-8-fluoro-3,4-dihydroisoquinolin-1(2H)-one] was tested. Which IC50 did it give?
A: 2.4 nM

Q: Which IC50 does the source give for `CN(C)C(=O)c1cc(Nc2nc(N)nc(-c3cccc(N4CCc5cc(C6CC6)cc(F)c5C4=O)c3CO)n2)cn1C` [Example 272, 4-({4-Amino-6-[3-(6-cyclo-propyl-8-fluoro-1-oxo-3,4-dihydroisoquino-lin-2(1H)-yl)-2-(hydroxy-methyl)phenyl]-1,3,5-triazin-2-yl}ami-no)-N,N,1-trimethyl-1H-pyrrole-2-carboxamide] here?
A: 1.1 nM

Q: How did the IC50 turn out when `Nc1nc(Nc2cnn(CC3CCOCC3)c2)nc(-c2cccc(N3CCc4cc(C5CC5)cc(F)c4C3=O)c2CO)n1` [Example 257, 2-{3-[4-Amino-6-({1-[(tetra-hydro-2H-pyran-4-yl)methyl]-1H-pyrazol-4-yl}amino)-1,3,5-triazin-2-yl]-2-(hydroxy-methyl)phenyl}-6-cyclo-propyl-8-fluoro-3,4-dihydroisoquinolin-1(2H)-one] was run?
A: 0.6 nM

Q: For `CNC(=O)c1cc(Nc2nc(N)nc(-c3cccc(N4CCc5cc(C6CC6)cc(F)c5C4=O)c3CO)n2)cn1C` [Example 232, 4-({4-Amino-6-[3-(6-cyclo-propyl-8-fluoro-1-oxo-3,4-dihydroisoquinolin-2(1H)-yl)-2-(hy-droxymethyl)phenyl]-1,3,5-triazin-2-yl}ami-no)-N,1-dimethyl-1H-pyrrole-2-carboxamide], which IC50 is on record?
A: 0.7 nM

Q: With `Nc1nc(Nc2ccc(OCCN3CCOCC3)cc2)nc(-c2cccc(N3CCc4cc(C5CC5)cc(F)c4C3=O)c2CO)n1` [Example 196, 2-[3-(4-Amino-6-{[4-(2-morpholinoethoxy)phe-nyl]amino}-1,3,5-tri-azin-2-yl)-2-(hydroxy-methyl)phenyl]-6-cyclo-propyl-8-fluoro-3,4-dihydroisoquinolin-1(2H)-one formate] as the molecule, how does the IC50 read?
A: 3.4 nM

Q: Which IC50 does the source give for `CC(C)(C)OC(=O)N1CCN(c2ccc(Nc3nc(N)nc(-c4cccc(NC(=O)c5ccc(C(C)(C)C)cc5)c4CO)n3)cc2)CC1` [Example 104, tert-Butyl 4-{4-[(4-amino-6-{3-[4-(tert-butyl)benzamido]-2-(hydroxymethyl)phenyl}-1,3,5-triazin-2-yl)amino]phenyl} piperazine-1-carboxylate] here?
A: 5 nM

Q: For `COCCOc1ccc(Nc2nc(N)nc(-c3cccc(NC(=O)c4ccc(C(C)(C)C)cc4)c3C)n2)cc1` [Example 34, N-[3-(4-Amino-6-{[4-(2-methoxyethoxy)phenyl]amino}-1,3,5-triazin-2-yl)-2-methylphenyl]-4-(tert-butyl)benz-amide], which IC50 is on record?
A: 4 nM

Q: With `CC(C)(C#N)c1cc(F)c2c(c1)CCN(c1cccc(-c3nc(N)nc(Nc4cn[nH]c4)n3)c1CO)C2=O` [Example 206, 2-[2-(3-{4-[(1H-Pyrazol-4-yl)amino]-6-amino-1,3,5-triazin-2-yl}-2-(hydroxymethyl)phe-nyl)-8-fluoro-1-oxo-1,2,3,4-tetrahydro-isoquinolin-6-yl]-2-meth-ylpropanenitrile] as the molecule, how does the IC50 read?
A: 1 nM

Q: Which IC50 does the source give for `Nc1nc(Nc2cc3n(c2)CCNC3=O)nc(-c2cccc(N3CCc4cc(C5CC5)cc(F)c4C3=O)c2CO)n1` [Example 267, 2-(3-{4-Amino-6-[(1-oxo-1,2,3,4-tetrahydro-pyrrolo[1,2-a]pyrazin-7-yl)amino]-1,3,5-tri-azin-2-yl}-2-(hydroxy-methyl)phenyl)-6-cyclo-propyl-8-fluoro-3,4-dihydroisoquinolin-1 (2H)-one] here?
A: 1.5 nM

Q: With `CC(C)(C)c1ccc(C(=O)Nc2cccc(-c3nc(N)nc(Nc4ccc(CO)cc4)n3)c2CO)cc1` [Example 111, N-[3-(4-Amino-6-{[4-(hydroxymethyl)phenyl]amino}-1,3,5-triazin-2-yl)-2-(hydroxymeth-yl)phenyl]-4-(tert-butyl) benzamide] as the molecule, how does the IC50 read?
A: 1 nM

Q: With `CC1CCc2sc(C(=O)Nc3cccc(-c4nc(N)nc(Nc5ccc(N6CCOCC6)cc5)n4)c3CO)cc2C1` (stereo not drawn) [Example 139, N-(3-{4-Amino-6-[(4-morpholinophenyl)amino]-1,3,5-triazin-2-yl}-2-(hydroxymethyl)phe-nyl)-5-methyl-4,5,6,7-tetrahydrobenzo[b] thiophene-2-carboxamide] as the molecule, how does the IC50 read?
A: 1.6 nM

Q: Which IC50 does the source give for `CC(C)(C)c1ccc(C(=O)Nc2cccc(-c3nc(N)nc(Nc4ccc(O)cc4)n3)c2CO)cc1` [Example 65, N-(3-{4-Amino-6-[(4-hy-droxyphenyl)amino]-1,3,5-triazin-2-yl}-2-(hydroxymethyl)phenyl)-4-(tert-butyl)benza-mide] here?
A: 0.6 nM

Q: How did the IC50 turn out when `CS(=O)(=O)n1cc(Nc2nc(N)nc(-c3cccc(N4CCc5cc(C6CC6)cc(F)c5C4=O)c3CO)n2)cn1` [Example 233, 2-[3-(4-Amino-6-{[1-(meth-ylsulfonyl)-1H-py-razol-4-yl]amino}-1,3,- 5-triazin-2-yl)-2-(hy-droxymethyl)phenyl]-6-cyclopropyl-8-fluoro-3,4-dihydroisoquino-lin-1(2H)-one] was run?
A: 4.2 nM

Q: `CC(C)(C)c1ccc(C(=O)Nc2cccc(-c3nc(N)nc(Nc4ccc5[nH]c(=O)[nH]c5c4)n3)c2CO)cc1` [Example 141, N-(3-{4-Amino-6-[(2-oxo-2,3-dihydro-1H-ben-zo[d]imidazol-5-yl)ami-no]-1,3,5-triazin-2-yl}-2-(hydroxymethyl)phenyl)-4-(tert-butyl) benzamide] was tested. Which IC50 did it give?
A: 1.2 nM

Q: Which IC50 does the source give for `Nc1nc(Nc2ccc(N3CCOCC3)cc2)nc(-c2cccc(NC(=O)c3ccc4c(c3)CCCC4)c2CO)n1` [Example 102, N-(3-{4-Amino-6-[(4-morpholinophenyl)amino]-1,3,5-triazin-2-yl}-2-(hydroxymethyl)phe-nyl)-5,6,7,8-tetrahydro-naphthalene-2-carbox-amide] here?
A: 8.7 nM

Q: With `Nc1nc(Nc2ccc(N3CCC(O)CC3)cc2)nc(-c2cccc(NC(=O)c3cc4c(s3)CCCC4)c2CO)n1` [Example 128, N-[3-(4-Amino-6-{[4-(4-hydroxypiperidin-1-yl)phenyl]amino}-1,3,5-triazin-2-yl)-2-(hy-droxymethyl)phenyl]-4,5,6,7-tetrahydrobenzo [b]thiophene-2-carbox-amide] as the molecule, how does the IC50 read?
A: 0.6 nM

Q: With `CN1CCC(n2cc(Nc3nc(N)nc(-c4cccc(N5CCc6cc(C7CC7)cc(F)c6C5=O)c4CO)n3)cn2)CC1` [Example 252, 2-[3-(4-Amino-6-{[1-(1-methylpiperidin-4-yl)-1H-pyrazol-4-yl]ami-no}-1,3,5-triazin-2-yl)-2-(hydroxymethyl)phenyl]-6-cyclopropyl-8-fluoro-3,4-dihydro-isoquinolin-1(2H)-one] as the molecule, how does the IC50 read?
A: 0.8 nM

Q: For `CC(C)(C)c1ccc(C(=O)Nc2cccc(-c3nc(N)nc(Nc4ccc(-c5nn[nH]n5)cc4)n3)c2CO)cc1` [Example 202, N-[3-(4-{[4-(1H-Tetra-zol-5-yl)phenyl]amino}-6-amino-1,3,5-triaz-in-2-yl)-2-(hydroxy-methyl)phenyl]-4-(tert-butyl)benzamide], which IC50 is on record?
A: 1.3 nM

Q: Which IC50 does the source give for `CC(C)(C)c1ccc(C(=O)Nc2cccc(-c3nc(N)nc(Nc4ccc(S(=O)(=O)N5CCOCC5)cc4)n3)c2CO)cc1` [Example 204, N-[3-(4-Amino-6-{[4-(morpholinosulfonyl)phe-nyl]amino}-1,3,5-tri-azin-2-yl)-2-(hydroxy-methyl)phenyl]-4-(tert-butyl)benzamide] here?
A: 1.3 nM

Source: patent US20150011751A1, “NOVEL TRIAZINE DERIVATIVE” (CARNA BIOSCIENCES, INC., priority 2012, published 2015)
